From patent US20240374567A1, “Combination Treatments for Cancer Patients and Methods for Identifying Same” (Scandion Oncology A/S, priority 2021, published 2024) come the findings set out here.

The assay deals with UGT1A1. Put plainly: Clinical study of SCO-101 with FOLFIRI: serum bilirubin and bilirubin index after SCO-101. It is filed as in vivo, human. On the procedure:
The term “bilirubin index” as used herein or “bilirubin index score” which are used interchangeably, refer to a patient's rate of bilirubin normalization subsequent to administration of an UGT1A1 inhibitor to the patient. Herein, the bilirubin index is determined subsequent to administration of an UGT1A1 inhibitor to the patient for a number of consecutive days, such as 1, 2, 3, 4, 5, or 6, preferably 6 days. Based on 6 consecutive days of administration with an UGT1A1 inhibitor, the bilirubin index is determined as the bilirubin serum or plasma concentration (unconjugated or total bilirubin) on day 12 divided with the bilirubin serum or plasma concentration on day 7 and thus is an indicator of how much the patients' UGT1A1 activity has normalized following cessation of SCO-101 treatment and can be determined using bilirubin as a surrogate marker.
Bilirubin: Blood sampling for analysis of bilirubin (total, unconjugated and conjugated) were withdrawn at Screening (up to 4 weeks prior start of treatment), day 5, day 7 and day 12 in the first treatment cycle.
Likely, the increase in unconjugated bilirubin is mediated through inhibition of the enzyme UDP-glucuronosyltransferase 1 family, polypeptide A1 (UGT1A1). UGT1A1 is an enzyme responsible for conjugation of poorly soluble endo- and xenobiotics making them more soluble and possible to excrete. UGT1A1 is the primary enzyme responsible for conjugation of bilirubin and metabolism of Irinotecan's active metabolite SN-38. The bilirubin index score is the bilirubin serum concentration (unconjugated or total bilirubin) on day 12 divided with the bilirubin serum concentration on day 7 and thus is an indicator of how much the patients' UGT1A1 activity has normalized following cessation of SCO-101 treatment, and can be determined using bilirubin as a surrogate marker. In FIG. 2, an overview of the bilirubin index for all patients is included. The mean bilirubin index score for the six RAS wild type patients is approximately 0.15 (lowest 0.04, highest 0.28) whereas the mean score for the six RAS mutated patients is 0.59 (lowest 0.25, highest 0.76). Thus, there is a strong indication that the bilirubin index can predict a patient's tolerability to treatment.

Take `O=C(Nc1cc(C(F)(F)F)cc(C(F)(F)F)c1)Nc1ccc(Br)cc1-c1nnn[nH]1` [SCO-101]: the “reversibility of bilirubin increase / UGT1A1 inhibition” value (after discontinuation of SCO-101 treatment) was “completely reversible”. Also, where the note is “patients with RAS mutation, cohort 1 (150 mg SCO-101), cycle 1”, the “bilirubin index (bilirubin serum concentration on day 12 divided with day 7)” value is “above 0.4”. Besides, for the setting “patients, SCO-101 days 1 to 6”, the “effect on unconjugated bilirubin serum concentration” value is “specific and dose dependent increase”. Further, under “six RAS mutated patients”, the “highest bilirubin index score” value is reported as 0.76, the “lowest bilirubin index score” value stood at 0.25 and the “mean bilirubin index score” value turned out to be 0.59. Also, for the setting “six RAS wild type patients”, the “highest bilirubin index score” value was 0.28, the “lowest bilirubin index score” value came out at 0.04 and the “mean bilirubin index score” value is reported as “approximately 0.15”.
